“Also recorded” adds a separate entry of the source.
Columns and labels:
[1] = system: HT1080, HeLa and DU145 cells; assay: Colony formation assay, non-PCa and AR-negative PCa cells; format: cell-based, human; details: 10 μM, 7 days
Method: (§1) Cell Colony Assay: Cells were plated in 24-well plates at a density allowing 6-7 days of exponential growth before confluency. Medium and compound was replaced every 48 hours to minimize the effect of potential compound instability. After 7 days of incubation in the presence of compound, cells were fixed and stained with methylene blue, followed by extraction of the stain with 1% SDS and spectrophotometry at 650 nm. Each assay was run in triplicate and the difference between control and compound-treated wells was determined using Student's t-test.
(§2) This Example provides a description of the effect of the selected compounds on the growth of PCa cells. To test the toxicity of the identified AR inhibitors towards cells of different origins, we performed colony formation assays using a single dose of each compound (10 μM) on several PCa (LNCaP, C4-2, CWR22R and DU145) and two non-PCa (HT1080 and HeLa) cell lines (FIG. 2A). […] These compounds were not weaker inhibitors of AR transcriptional activity in CWR22R or C4-2 cells than compounds that inhibited growth of the cells.

[2] = system: AR-expressing PCa cell lines (LNCaP, C4-2, CWR22R); assay: Toxicity to AR-expressing PCa cell lines (colony formation / dose-dependent growth inhibition); format: cell-based, human; details: for toxicity towards AR-expressing PCa cell lines: colony formation, 10 μM, three AR-expressing PCa cell lines; for degree of toxicity to PCa cells (killing vs reduced growth): dose-dependent toxicity, by day 7
Method: as §1
Dose-dependent inhibition of cell growth: Cells were plated at 1×10^3 cells per well in 96-well plates. Compounds were added in a dose range from 1 to 20000 nM in two-fold increments. Each dose was tested in triplicate. Controls were 0.1% DMSO (no effect on cell viability) and 50 μM 9-aminoacridine (complete cell death). Cells were incubated for 6 days and then fixed and stained with methylene blue, followed by extraction of the stain with 1% SDS and spectrophotometry at 650 nm. The assay was run two times and, based on the results, the inhibitory concentration of compound suppressing cell growth by 50% as compared to DMSO (IC50) was calculated by the sigmoid approximation method using CalcuSyn software (Biosoft, Chembridge, UK). Confidence intervals were calculated for each sigmoid.
as §2, with “the cells. […]” for “the cells.”

CWR22R cells = assay: Cell cycle distribution by propidium iodide staining; format: cell-based, human; details: for changes in cell cycle distribution: increase in G1, decrease in S phase; for cells with sub-G1 DNA content (apoptotic): propidium iodide FACS
Method: Analysis of cell cycle distribution was based on staining of DNA content by propidium iodide. 10^5 cells were removed from culture dishes using trypsin, washed with PBS and resuspended in 300 μl 3% BSA in PBS, followed by addition of […] 70% ethanol. Cells were kept at −20° C. for several hours and then stained with 10 μg/ml propidium iodide in the presence of 30 μg/ml RNase A for 2 hrs at 37° C. DNA content was assessed using a FACS Calibur instrument and CellQuest software (Becton Dickinson, Franklin Lakes, N.J.).
To test this possibility, we assessed the cell cycle distribution of CWR22R cells treated with both categories of compounds. […] Therefore, different subsets of compounds inhibiting AR-dependent transcription in androgen-independent PCa cells cause either growth arrest or apoptosis in these cells. Whether a compound causes growth arrest or apoptosis is not determined by the potency of the compound as an inhibitor of AR-dependent transcription (i.e., FIG. 2B).

NIH Swiss mice = assay: Compound safety in mice, dose escalation; format: in vivo; details: three i.p. injections 20x, 50x, 100xIC50 in 3 day intervals
Method: Testing of compound safety in mice was done according to an IACUC-approved protocol. The experiment was performed using outbred 8 week old NIH Swiss male mice from Harlan (Indianapolis, Ind.), 4 mice per group. IC50 concentrations were used to calculate in vivo doses based on mouse weight (IC50 in vivo dose equivalent in mg/kg=IC50 in mg/ml×1000, based on the assumption that 1 g of mouse tissues have an approximate volume of 1 ml). The compounds were injected intraperitoneally (i.p.) in 25% DMSO-75% PBS starting from 20×IC50 equivalent of in vitro cytotoxic dose of compounds. […]. The control group of mice received 3 injections of 25% DMSO-75% PBS in intervals of three days. Blood biochemistry analysis was performed by BioReliance (Rockville, Md.).
Five hit compounds, representing both the ARTIS and ARTIK categories (c6, c11, c17, c52 and c85), were selected for in vivo tests based on all of the previous assays. Compound c5 was rejected due to very low microsomal stability (<5% after 1 hour incubation with rat microsomes). The toxicity of the compounds was evaluated in a dose escalation assay in which male NIH Swiss mice (n=4) received three sequential intraperitoneal (i.p.) injections of each compound delivered in 3 day intervals. […]. On the day after the last injection, half of the mice in each group were sacrificed for gross pathology examination and collection of blood for serum biochemistry assays, which include total protein, glucose, bilirubin, and creatinine levels, activity of liver enzymes, and ion concentrations. The remaining mice were sacrificed and evaluated similarly 7 days after the last compound injection. […] A minor decrease in serum glucose concentration (70-80% of control) was observed on the day after the last compound injection in almost all mice, but glucose levels were normal a week later (data not shown). Low serum glucose level might reflect of a weak transient GR-inhibitory effect of the selected compounds.

C4-2 tumors = assay: C4-2 xenograft model in nude mice; format: in vivo, mouse; details: 6 daily i.p. injections, 100xIC50 dose
Text: FIGS. 6A and 6B provide data showing anti-tumor activity of the selected hits in mouse models of androgen-independent PCa. FIG. 6A provides a graphical representation of data obtained from i.p. injection of the listed compounds or DMSO vehicle into nude mice carrying subcutaneous (s.c.) C4-2 tumors. Six daily injections were given starting when tumors were around 100 mm3 in size. There were 4-5 mice per group with two tumors per mouse. Asterisks (*) and number signs (#) are placed under the means of measurement in the c6 and c11 groups respectively which are statistically different from the control group by ANOVA test (>99%) B. C52 (9 mg/kg or 18 mg/kg) or DMSO vehicle was injected into the tail vein of nude mice carrying s.c. CWR22R tumors. Five daily injections were given starting when tumors were around 40 mm3 in size. There were 10 mice per group with one tumor per mouse. Asterisks (*) are placed under the means of measurement which are statistically different from the control group by ANOVA test (>99%). Error bars in both FIGS. 6A and B—standard deviation between the size of tumors within a given treatment group.
Testing of the anti-tumor effect of compounds in mice was done according to an IACUC-approved protocol in 8 week old male athymic nude mice from Harlan (Indianapolis, Ind.). For the C4-2 xenograft model, 10^6 C4-2 cells were injected subcutaneously (s.c.) in 2 sites of each mouse in 50% matrigel (BD Biosciences, Bradford, Mass.) in PBS. Upon development of visible tumors, they were measured using digital caliper. Tumor volume was calculated according to the formula: […]. Mice were injected with compounds i.p. daily for 6 days starting on the day when at least one tumor per mouse reached 100 mm^3 in size. Five mice per group were used. For the CWR22R xenograft model, CWR22R cells were inoculated (10^5 cells per inoculum) in 50% matrigel, one site per mouse. Treatment was started when the tumor grew to a size of at least 25 mm^3. Compounds were diluted in captisol (CyDex, Lenexa, Kans.) and delivered intravenously (to reduce “first pass” liver effect) once a day for 5 days. Ten mice per group were used. Mice were monitored daily and tumors were measured every other day. Mice were euthanized according to institutional regulations when the size of tumor reached 1000 mm^3. Comparison of the tumor growth in control and treated mice was done using ANOVA test.
We evaluated the potential anti-tumor effect of the hits using C4-2 and CWR22R xenograft models of androgen-independent PCa in nude mice. Groups of C4-2 tumor-bearing mice (4-5 mice per group, each with two tumors) were given 6 daily i.p. injections of compound (100×IC50 dose) or DMSO vehicle.

LNCaP cells = assay: Colony formation assay, LNCaP cells; format: cell-based, human; details: 10 μM, 7 days
Method: (§3) Cell Colony Assay: Cells were plated in 24-well plates at a density allowing 6-7 days of exponential growth before confluency. Medium and compound was replaced every 48 hours to minimize the effect of potential compound instability. After 7 days of incubation in the presence of compound, cells were fixed and stained with methylene blue, followed by extraction of the stain with 1% SDS and spectrophotometry at 650 nm. Each assay was run in triplicate and the difference between control and compound-treated wells was determined using Student's t-test. This Example provides a description of the effect of the selected compounds on the growth of PCa cells. To test the toxicity of the identified AR inhibitors towards cells of different origins, we performed colony formation assays using a single dose of each compound (10 μM) on several PCa (LNCaP, C4-2, CW[…] and DU145) and two non-PCa (HT1080 and HeLa) cell lines (FIG. 2A). […] These compounds were not weaker inhibitors of AR transcriptional activity in CW[…] or C4-2 cells than compounds that inhibited growth of the cells.

C4-2 and CWR22R cells = assay: Colony formation assay, androgen-independent C4-2 and CWR22R cells; format: cell-based, human; details: 10 μM, 7 days
Method: as §3

Structure (SMILES): Clc1ccccc1C1Nc2cccc3cccc(c23)N1 [c6]
- growth of / toxicity towards non-PCa cells or AR-negative PCa cells (DU145) [1]: no toxicity
- toxicity towards AR-expressing PCa cell lines [2]: different degrees of toxicity; also recorded: suppress growth of all
- degree of toxicity to PCa cells (killing vs reduced growth) [2]: reduced growth as compared to untreated control cells, but not obvious cell death
- changes in cell cycle distribution (CWR22R cells): cell cycle arrest
- cells with sub-G1 DNA content (apoptotic) (CWR22R cells): did not result in appearance of cells with sub-G1 DNA content
- toxicity in mice (visual inspection, gross pathology) (NIH Swiss mice): generally non-toxic
- C4-2 tumor growth (C4-2 tumors): clear suppression of C4-2 tumor growth

Structure (SMILES): CC1=C(C(=O)OCCc2ccccc2)C(c2ccc(Cl)cc2)C2=C(CCCC2=O)N1 (centres unmarked) [c8]
- growth of androgen-sensitive LNCaP cells (LNCaP cells): suppressed growth of LNCaP cells; also recorded: suppress growth of androgen-sensitive LNCaP cells
- growth of androgen-independent C4-2 and CWR22R cells (C4-2 and CWR22R cells): do not affect growth

Structure (SMILES): CC(C)(C)c1ccc(C(=O)Nc2ccc(NC(=O)c3ccc4c(c3)OCCO4)cc2)cc1 [c11]
- growth of / toxicity towards non-PCa cells or AR-negative PCa cells (DU145) [1]: no toxicity
- toxicity towards AR-expressing PCa cell lines [2]: different degrees of toxicity; also recorded: suppress growth of all
- degree of toxicity to PCa cells (killing vs reduced growth) [2]: reduced growth as compared to untreated control cells, but not obvious cell death
- changes in cell cycle distribution (CWR22R cells): cell cycle arrest
- cells with sub-G1 DNA content (apoptotic) (CWR22R cells): did not result in appearance of cells with sub-G1 DNA content
- toxicity in mice (visual inspection, gross pathology) (NIH Swiss mice): generally non-toxic
- C4-2 tumor growth (C4-2 tumors): clear suppression of C4-2 tumor growth

Structure (SMILES): CC(C)c1ccc2oc(-c3cccc(NC(=S)NC(=O)c4ccccc4Br)c3)nc2c1 [c16]
- growth of androgen-sensitive LNCaP cells (LNCaP cells): suppressed growth of LNCaP cells; also recorded: suppress growth of androgen-sensitive LNCaP cells
- growth of androgen-independent C4-2 and CWR22R cells (C4-2 and CWR22R cells): do not affect growth

Structure (SMILES): O=C(NC(=S)Nc1nc(-c2ccccc2)cs1)c1ccc(-c2ccccc2)cc1 [c17]
- growth of / toxicity towards non-PCa cells or AR-negative PCa cells (DU145) [1]: no toxicity
- toxicity towards AR-expressing PCa cell lines [2]: different degrees of toxicity; also recorded: suppress growth of all
- degree of toxicity to PCa cells (killing vs reduced growth) [2]: reduced growth as compared to untreated control cells, but not obvious cell death
- C4-2 tumor growth (C4-2 tumors): did not

Structure (SMILES): C=CCc1ccccc1OCCOc1ccc(C=Nn2cnnc2)cc1OC [c18]
- growth of / toxicity towards non-PCa cells or AR-negative PCa cells (DU145) [1]: no toxicity
- toxicity towards AR-expressing PCa cell lines [2]: different degrees of toxicity; also recorded: suppress growth of all
- degree of toxicity to PCa cells (killing vs reduced growth) [2]: reduced growth as compared to untreated control cells, but not obvious cell death

Structure (SMILES): C=CCc1ccc(OCCCOc2ccccc2C(C)=O)c(OC)c1 [c47]
- growth of androgen-sensitive LNCaP cells (LNCaP cells): suppressed growth of LNCaP cells; also recorded: suppress growth of androgen-sensitive LNCaP cells
- growth of androgen-independent C4-2 and CWR22R cells (C4-2 and CWR22R cells): do not affect growth

Structure (SMILES): c1ccc(CNc2ccc(-c3nc4ccccc4o3)cc2)cc1 [c55]
- growth of androgen-sensitive LNCaP cells (LNCaP cells): suppressed growth of LNCaP cells; also recorded: suppress growth of androgen-sensitive LNCaP cells
- growth of androgen-independent C4-2 and CWR22R cells (C4-2 and CWR22R cells): do not affect growth

Structure (SMILES): Cc1ccc(OCC(=O)Nc2ccc(Cl)c([N+](=O)[O-])c2)c(C)c1 [c61]
- growth of androgen-sensitive LNCaP cells (LNCaP cells): suppressed growth of LNCaP cells; also recorded: suppress growth of androgen-sensitive LNCaP cells
- growth of androgen-independent C4-2 and CWR22R cells (C4-2 and CWR22R cells): do not affect growth

Structure (SMILES): FC(F)(F)c1ccccc1CN1CCN(Cc2c[nH]c3ccccc23)CC1 [c66]
- growth of / toxicity towards non-PCa cells or AR-negative PCa cells (DU145) [1]: exception
